Several values for one entry are separate records, joined by “and”; a condition that tells them apart may be missing. Identical values can stand only once.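 Protocol summary: plate cells (96-well), add compound at 5 concentrations, incubate 48 h, interpolate endpoints linearly. GI50: concentration for 50% inhibition of growth.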 Activity calls are given as the source filed them. Rule as the data show it: active = GI50 up to about 1.1 µM and inactive = higher.
Columns and labels:
Test in all cases: inhibition of tumour cell growth, NCI panel, 48 h
M19-MEL = test system: M19-MEL
SR = test system: SR
DU-145 = test system: DU-145
NCI/ADR-RES = test system: NCI/ADR-RES
HOP-18 = test system: HOP-18
MCF7 = test system: MCF7
HT-29 = test system: HT-29
MDA-MB-435 = test system: MDA-MB-435
DMS-273 = test system: DMS-273
HCT-116 = test system: HCT-116
CCRF-CEM = test system: CCRF-CEM
SK-MEL-2 = test system: SK-MEL-2
MDA-MB-231 = test system: MDA-MB-231
DLD-1 = test system: DLD-1
Hs-578T = test system: Hs-578T
T47D = test system: T47D
HOP-92 = test system: HOP-92
BT-549 = test system: BT-549
LXFL 529 = test system: LXFL 529
SF-295 = test system: SF-295
PC-3 = test system: PC-3
HCT-15 = test system: HCT-15
DMS-114 = test system: DMS-114
MOLT-4 = test system: MOLT-4
KM-20L2 = test system: KM-20L2
MDA-N = test system: MDA-N
XF498 = test system: XF498
SNB-78 = test system: SNB-78
SK-MEL-5 = test system: SK-MEL-5
M14 = test system: M14
HL-60 = test system: HL-60
RXF 393 = test system: RXF 393
K562 = test system: K562
A549 = test system: A549
Malme-3M = test system: Malme-3M
NCI-H23 = test system: NCI-H23
HCC 2998 = test system: HCC 2998
A498 = test system: A498
NCI-H226 = test system: NCI-H226
COLO 205 = test system: COLO 205
OVCAR-8 = test system: OVCAR-8
UACC-62 = test system: UACC-62
SNB-75 = test system: SNB-75
UO-31 = test system: UO-31
SK-OV-3 = test system: SK-OV-3
SN12C = test system: SN12C
U-251 = test system: U-251
UACC-257 = test system: UACC-257
IGROV-1 = test system: IGROV-1
SW-620 = test system: SW-620
786-0 = test system: 786-0
NCI-H522 = test system: NCI-H522
SF-268 = test system: SF-268
ACHN = test system: ACHN
SK-MEL-28 = test system: SK-MEL-28
SNB-19 = test system: SNB-19
RPMI-8226 = test system: RPMI-8226
SF-539 = test system: SF-539
OVCAR-4 = test system: OVCAR-4
HOP-62 = test system: HOP-62
EKVX = test system: EKVX
CAKI-1 = test system: CAKI-1
LOX IMVI = test system: LOX IMVI
OVCAR-3 = test system: OVCAR-3
KM12 = test system: KM12
TK-10 = test system: TK-10
NCI-H460 = test system: NCI-H460
OVCAR-5 = test system: OVCAR-5

## CCN(CC)CCN1C(=O)c2c(c3c4cccc(Cl)c4n(C4OC(CO)C(OC)C(O)C4O)c3c3[nH]c4c(Cl)cccc4c23)C1=O (stereo not given)
M19-MEL
  GI50: 0.0303 µM (active)
SR
  GI50: < 0.0137 µM (active)
DU-145
  GI50: 0.0121 µM (active)
NCI/ADR-RES
  GI50: 0.169 µM (active)
HOP-18
  GI50: 0.00101 µM (active)
MCF7
  GI50: < 0.01 µM (active)
HT-29
  GI50: < 0.0189 µM (active)
MDA-MB-435
  GI50: 0.0147 µM (active)
DMS-273
  GI50: < 0.0178 µM (active)
HCT-116
  GI50: < 0.0164 µM (active)
CCRF-CEM
  GI50: < 0.0166 µM (active)
SK-MEL-2
  GI50: 42.8 nM (active) and 68.1 nM (active)
MDA-MB-231
  GI50: 0.182 µM (active)
DLD-1
  GI50: 0.0918 µM (active)
Hs-578T
  GI50: 0.0379 µM (active)
T47D
  GI50: 0.0212 µM (active)
HOP-92
  GI50: < 34.4 nM (active) and < 24 nM (active)
BT-549
  GI50: 0.175 µM (active)
LXFL 529
  GI50: < 0.0239 µM (active)
SF-295
  GI50: < 0.0165 µM (active)
PC-3
  GI50: < 0.0386 µM (active)
HCT-15
  GI50: 0.103 µM and 0.132 µM
DMS-114
  GI50: 0.0413 µM (active)
MOLT-4
  GI50: < 10 nM (active) and 17.6 nM (active)
KM-20L2
  GI50: 0.773 µM (active)
MDA-N
  GI50: 0.0111 µM (active)
XF498
  GI50: 0.0463 µM (active)
SNB-78
  GI50: 0.00101 µM (active)

## COc1ccc(C2=C(Cl)c3cc(OC)c(OC)cc3C2)cc1OC
SK-MEL-5
  GI50: > 100 µM (inactive)
M19-MEL
  GI50: > 100 µM (inactive)
M14
  GI50: > 100 µM (inactive)
SR
  GI50: > 100 µM (inactive)
HOP-18
  GI50: > 100 µM (inactive)
HL-60
  GI50: > 100 µM (inactive)
RXF 393
  GI50: 24.4 µM (inactive)
K562
  GI50: > 100 µM (inactive)
A549
  GI50: > 100 µM (inactive)
HT-29
  GI50: > 100 µM (inactive)
Malme-3M
  GI50: > 100 µM (inactive)
NCI-H23
  GI50: > 100 µM (inactive)
HCC 2998
  GI50: > 100 µM (inactive)
A498
  GI50: 34.9 µM (inactive)
DMS-273
  GI50: > 100 µM (inactive)
HCT-116
  GI50: > 100 µM (inactive)
CCRF-CEM
  GI50: > 100 µM (inactive)
NCI-H226
  GI50: > 100 µM (inactive)
COLO 205
  GI50: > 100 µM (inactive)
OVCAR-8
  GI50: > 100 µM (inactive)
DLD-1
  GI50: > 100 µM (inactive)
UACC-62
  GI50: > 100 µM (inactive)
HOP-92
  GI50: > 100 µM (inactive)
SNB-75
  GI50: > 100 µM (inactive)
UO-31
  GI50: > 100 µM (inactive)
SK-OV-3
  GI50: > 100 µM (inactive)
LXFL 529
  GI50: > 100 µM (inactive)
SN12C
  GI50: > 100 µM (inactive)
U-251
  GI50: > 100 µM (inactive)
UACC-257
  GI50: > 100 µM (inactive)
IGROV-1
  GI50: > 100 µM (inactive)
SW-620
  GI50: > 100 µM (inactive)
786-0
  GI50: > 100 µM (inactive)
NCI-H522
  GI50: > 100 µM (inactive)
SF-268
  GI50: > 100 µM (inactive)
ACHN
  GI50: > 100 µM (inactive)
SF-295
  GI50: > 100 µM (inactive)
SK-MEL-28
  GI50: > 100 µM (inactive)
SNB-19
  GI50: > 100 µM (inactive)
RPMI-8226
  GI50: > 100 µM (inactive)
HCT-15
  GI50: > 100 µM
SF-539
  GI50: > 100 µM (inactive)
DMS-114
  GI50: > 100 µM (inactive)
OVCAR-4
  GI50: > 100 µM (inactive)
MOLT-4
  GI50: > 100 µM (inactive)
KM-20L2
  GI50: > 100 µM (inactive)
HOP-62
  GI50: > 100 µM (inactive)
EKVX
  GI50: > 100 µM (inactive)
XF498
  GI50: > 100 µM (inactive)
SNB-78
  GI50: > 100 µM (inactive)

## CC(CC[C@@H](C)C1CCC2[C@@H]3CC(O)C4CC(O)[C@@H](O)C[C@]4(C)C3CC[C@@]21C)C(C)(C)C (stereo not given in full)
SK-MEL-5
  GI50: > 100 µM (inactive)
M19-MEL
  GI50: > 100 µM (inactive)
CAKI-1
  GI50: > 100 µM (inactive)
M14
  GI50: > 100 µM (inactive)
SR
  GI50: > 100 µM (inactive)
HOP-18
  GI50: > 100 µM (inactive)
HL-60
  GI50: > 100 µM (inactive)
RXF 393
  GI50: > 100 µM (inactive)
K562
  GI50: > 100 µM (inactive)
A549
  GI50: > 100 µM (inactive)
HT-29
  GI50: > 100 µM (inactive)
Malme-3M
  GI50: > 100 µM (inactive)
LOX IMVI
  GI50: > 100 µM (inactive)
NCI-H23
  GI50: > 100 µM (inactive)
HCC 2998
  GI50: > 100 µM (inactive)
A498
  GI50: > 100 µM (inactive)
DMS-273
  GI50: > 100 µM (inactive)
HCT-116
  GI50: > 100 µM (inactive)
CCRF-CEM
  GI50: > 100 µM (inactive)
SK-MEL-2
  GI50: > 100 µM (inactive)
NCI-H226
  GI50: > 100 µM (inactive)
COLO 205
  GI50: > 100 µM (inactive)
OVCAR-8
  GI50: > 100 µM (inactive)
DLD-1
  GI50: > 100 µM (inactive)
OVCAR-3
  GI50: > 100 µM (inactive)
UACC-62
  GI50: > 100 µM (inactive)
HOP-92
  GI50: > 100 µM (inactive)
SNB-75
  GI50: > 100 µM (inactive)
UO-31
  GI50: > 100 µM (inactive)
SK-OV-3
  GI50: > 100 µM (inactive)
LXFL 529
  GI50: > 100 µM (inactive)
SN12C
  GI50: > 100 µM (inactive)
U-251
  GI50: > 100 µM (inactive)
UACC-257
  GI50: > 100 µM (inactive)
IGROV-1
  GI50: > 100 µM (inactive)
SW-620
  GI50: > 100 µM (inactive)
786-0
  GI50: > 100 µM (inactive)
SF-268
  GI50: > 100 µM (inactive)
ACHN
  GI50: > 100 µM (inactive)
SF-295
  GI50: > 100 µM (inactive)
SK-MEL-28
  GI50: > 100 µM (inactive)
KM12
  GI50: > 100 µM (inactive)
SNB-19
  GI50: > 100 µM (inactive)
RPMI-8226
  GI50: > 100 µM (inactive)
TK-10
  GI50: > 100 µM (inactive)
HCT-15
  GI50: > 100 µM
SF-539
  GI50: > 100 µM (inactive)
DMS-114
  GI50: > 100 µM (inactive)
OVCAR-4
  GI50: > 100 µM (inactive)
NCI-H460
  GI50: > 100 µM (inactive)
MOLT-4
  GI50: > 100 µM (inactive)
KM-20L2
  GI50: > 100 µM (inactive)
HOP-62
  GI50: > 100 µM (inactive)
EKVX
  GI50: > 100 µM (inactive)
XF498
  GI50: > 100 µM (inactive)
SNB-78
  GI50: > 100 µM (inactive)
OVCAR-5
  GI50: > 100 µM (inactive)
